For one molecule, current ratio I/I0, V1/2 and deactivation tau results are on record in PubChem BioAssay AID2432 (Johns Hopkins Ion Channel Center, 2010).

The target of the assay is Potassium voltage-gated channel subfamily KQT member 2 (Rattus norvegicus) (UniProt O88943). The experiment in a line: molecular determinants of KCNQ2 potentiation – cell-based, rat KCNQ2, manual patch clamp, mode of action, mechanism study for KCNQ2 potentiator project, late-stage follow-up (AID 2432). The conditions noted are these: HEK293-KCNQ2 manual patch clamp, peak current ratio, at 10 µM; for V1/2: stronger effect = lower value. (Patch clamp records ionic current or voltage across a cell membrane.)

Each structure is given as a SMILES string.

Potassium voltage-gated channel subfamily KQT member 2 (Rattus norvegicus), sequence (O88943 whole entry, looked up): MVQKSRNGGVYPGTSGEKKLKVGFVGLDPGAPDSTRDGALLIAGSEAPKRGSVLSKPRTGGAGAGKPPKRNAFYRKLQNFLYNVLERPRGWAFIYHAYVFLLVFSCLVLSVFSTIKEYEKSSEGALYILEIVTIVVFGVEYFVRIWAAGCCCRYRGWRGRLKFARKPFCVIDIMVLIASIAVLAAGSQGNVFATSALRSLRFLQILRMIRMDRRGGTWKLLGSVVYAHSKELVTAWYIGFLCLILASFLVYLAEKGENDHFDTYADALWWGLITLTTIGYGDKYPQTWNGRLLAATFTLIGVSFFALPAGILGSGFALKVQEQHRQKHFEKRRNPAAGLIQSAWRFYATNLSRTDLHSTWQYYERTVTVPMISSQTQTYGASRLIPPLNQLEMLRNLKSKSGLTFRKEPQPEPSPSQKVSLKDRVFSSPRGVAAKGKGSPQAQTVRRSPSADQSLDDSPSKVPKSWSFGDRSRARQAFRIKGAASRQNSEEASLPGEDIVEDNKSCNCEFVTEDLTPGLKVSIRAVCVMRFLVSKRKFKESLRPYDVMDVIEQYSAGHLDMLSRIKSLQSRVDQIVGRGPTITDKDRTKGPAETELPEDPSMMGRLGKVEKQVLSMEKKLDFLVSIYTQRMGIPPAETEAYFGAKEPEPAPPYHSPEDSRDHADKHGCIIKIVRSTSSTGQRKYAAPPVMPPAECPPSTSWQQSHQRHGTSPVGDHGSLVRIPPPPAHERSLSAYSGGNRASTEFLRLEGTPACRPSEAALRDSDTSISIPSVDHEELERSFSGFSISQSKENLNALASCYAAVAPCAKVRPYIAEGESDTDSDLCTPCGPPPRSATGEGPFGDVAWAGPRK

As to `O=C(Nc1ccc(Cl)nc1)c1ccc(F)cc1`, the current ratio I/I0 by setting is: (stronger effect = higher value) 1.9; (measured here: L249A mutant current ratio, stronger effect = higher value) 1.8; (measured here: L249A/L275A double mutant current ratio, stronger effect = higher value) 2.3; (measured here: L275A mutant current ratio, stronger effect = higher value) 1.8; (measured here: W236L mutant current ratio, stronger effect = higher value) 1.7. The V1/2 is, setting by setting: (measured here: L249A mutant V1/2) -41.8 mV; (measured here: L249A/L275A double mutant V1/2) -9.1 mV; (measured here: L275A mutant V1/2) -28.3 mV; (measured here: W236L mutant V1/2) -38.6 mV; (measured here: WT half-activation voltage with compound) -55.3 mV. Moreover, the deactivation tau (measured here: WT deactivation time constant, stronger effect = higher value) was found to be 172 ms.
